Peptide text beside a SMILES is read from it.
What was measured:
[1] = ANTS/DPX liposome leakage assay; settings: for Peptide Concentration-induced 50 % ANTS/DPX leakage at pH 4.8 (L/P), 3POPC/1POPG Vesicle / Peptide Concentration-induced 50 % ANTS/DPX leakage at pH 4.8 (L/P), POPC Vesicle / Peptide Concentration-induced 50 % ANTS/DPX leakage at pH 7.4 (L/P), 3POPC/1POPG Vesicle / Peptide Concentration-induced 50 % ANTS/DPX leakage at pH 7.4 (L/P), POPC Vesicle: 0.5 mM vesicles, peptide 0-20 µM, 3 h incubation, lipid per peptide; for Peptide Concentration-induced 50 % ANTS/DPX leakage at pH 4.8 (L/P), 3POPC/1POPG Vesicle / Peptide Concentration-induced 50 % ANTS/DPX leakage at pH 4.8 (L/P), POPC Vesicle: HCl-adjusted PBS 1X pH 4.8; for Peptide Concentration-induced 50 % ANTS/DPX leakage at pH 7.4 (L/P), 3POPC/1POPG Vesicle / Peptide Concentration-induced 50 % ANTS/DPX leakage at pH 7.4 (L/P), POPC Vesicle: PBS 1X pH 7.4, high ratio = more potent
Procedure, shortened: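 Extruded 0.1 µm POPC or POPC/POPG (3:1) vesicles were loaded with 5 mM ANTS and 12.5 mM DPX, gel-filtered, then used at 0.5 mM lipid with titrated peptide at pH 7.4 or pH 4.8 (acidified PBS). Leakage was read at ex 350/em 510 nm after 3 h against 10% Triton maximum, expressed as lipid/peptide ratio for 50% leakage.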

[2] = Tryptophan fluorescent binding assay; settings: tryptophan fluorescence; 50 µM peptide, lipid titrated 0-5000 µM; phosphate buffered saline 1X, pH 7.4; values as lipid per peptide
Procedure, shortened: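 Tryptophan fluorescence was used to follow binding of peptide, fixed at 50 µM, to large unilamellar vesicles of POPC:POPG (3:1 ratio) titrated into phosphate buffered saline (1X, pH 7.4). After 1 h incubation, spectra were taken on a BioTek Cytation 5 reader with excitation at 280 nm and emission at 300 to 450 nm (9 nm slits), averaging three scans.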

[3] = system: HEK293T; assay: cells; type: cell-based, human; settings: 72 h
[4] = system: HMLER‐shEcad; assay: cells; type: cell-based, human; settings: 72 h
Excerpt: (§1) […], and MCF-10A cells were maintained in MEGM with supplements and growth factors bovine pituitary extract, hydrocortisone, human epidermal growth factor, insulin, and gentamicin/amphotericin-B.

[5] = system: U2OS; type: cell-based, human; settings: 72 h
[6] = system: HMLER‐shEcad tumorspheres; assay: cells; type: cell-based, human; settings: 16 h
[7] = system: HMLER; assay: cells; type: cell-based, human; settings: 72 h
Excerpt: as §1

[8] = system: MCF‐10A; assay: cells; type: cell-based, human; settings: 72 h
Excerpt: as §1

Question: With CC(C)C[C@H](NC(=O)CN)C(=O)N[C@@H](CC(C)C)C(=O)N[C@@H](CC(=O)O)C(=O)N[C@@H](CC(C)C)C(=O)N[C@@H](CC(C)C)C(=O)N[C@@H](CCC(=O)O)C(=O)N[C@@H](CC(C)C)C(=O)N[C@@H](CC(C)C)C(=O)N[C@@H](CC(C)C)C(=O)N[C@@H](CCCCN)C(=O)N[C@@H](C)C(=O)N[C@@H](C)C(=O)NCC(=O)N[C@@H](Cc1c[nH]c2ccccc12)C(N)=O [DEK] (H-GLLDLLELLLKAAGW-NH2) as the compound, how does the “Peptide Concentration-induced 50 % ANTS/DPX leakage at pH 4.8 (L/P), 3POPC/1POPG Vesicle” value [1] read?
Answer: 469 L/P

Question: What about the “Peptide Concentration-induced 50 % ANTS/DPX leakage at pH 4.8 (L/P), POPC Vesicle” value [1] of the same compound?
Answer: 10 L/P

Question: What about the “Peptide Concentration-induced 50 % ANTS/DPX leakage at pH 7.4 (L/P), 3POPC/1POPG Vesicle” value [1] of the same compound?
Answer: 773 L/P

Question: And the “Peptide Concentration-induced 50 % ANTS/DPX leakage at pH 7.4 (L/P), POPC Vesicle” value [1]?
Answer: 747 L/P

Question: What about the “change of ANTS/DPX dye leakage / liposome selectivity at pH 4.8” value ([1]; pH = 4.8 compared with physiological pH, anionic versus neutral liposomes) of the same compound?
Answer: significantly increased dye leakage from anionic liposomes

Question: What about the “Lipid Concentration-induced 50% Peptide Binding (L/P), 3POPC/1POPG Vesicle” value [2] of the same compound?
Answer: 1.67 L/P

Question: What about the “Lipid Concentration-induced 50% Peptide Binding (L/P), POPC Vesicle” value [2] of the same compound?
Answer: 1.50 L/P

Question: And the IC50 [3]?
Answer: 6.8 ± 0.85 µM

Question: What about the IC50 [4] of the same compound?
Answer: 0.7 ± 0.07 µM

Question: What about the IC50 [5] of the same compound?
Answer: 19.9 ± 2.65 µM

Question: And the IC50 [6]?
Answer: 12 ± 2 µM

Question: What about the IC90 [6] of the same compound?
Answer: 22 ± 2 µM

Question: For CC(C)C[C@H](NC(=O)CN)C(=O)N[C@@H](CC(C)C)C(=O)N[C@@H](Cc1c[nH]cn1)C(=O)N[C@@H](CC(C)C)C(=O)N[C@@H](CC(C)C)C(=O)N[C@@H](Cc1c[nH]cn1)C(=O)N[C@@H](CC(C)C)C(=O)N[C@@H](CC(C)C)C(=O)N[C@@H](CC(C)C)C(=O)N[C@@H](CCC(=O)O)C(=O)N[C@@H](C)C(=O)N[C@@H](C)C(=O)NCC(=O)N[C@@H](Cc1c[nH]c2ccccc12)C(N)=O [HHE] (H-GLLHLLHLLLEAAGW-NH2), which “Peptide Concentration-induced 50 % ANTS/DPX leakage at pH 4.8 (L/P), 3POPC/1POPG Vesicle” value [1] is on record?
Answer: 113 L/P

Question: What about the “Peptide Concentration-induced 50 % ANTS/DPX leakage at pH 4.8 (L/P), POPC Vesicle” value [1] of the same compound?
Answer: 143 L/P

Question: What about the “Peptide Concentration-induced 50 % ANTS/DPX leakage at pH 7.4 (L/P), 3POPC/1POPG Vesicle” value [1] of the same compound?
Answer: 411 L/P

Question: And the “Peptide Concentration-induced 50 % ANTS/DPX leakage at pH 7.4 (L/P), POPC Vesicle” value [1]?
Answer: 842 L/P

Question: And the “Lipid Concentration-induced 50% Peptide Binding (L/P), 3POPC/1POPG Vesicle” value [2]?
Answer: 0.75 L/P

Question: And the “Lipid Concentration-induced 50% Peptide Binding (L/P), POPC Vesicle” value [2]?
Answer: 1.00 L/P

Question: And the IC50 [3]?
Answer: 18.4 ± 3.75 µM

Question: What about the IC50 [4] of the same compound?
Answer: 10.8 ± 0.78 µM

Question: What about the IC50 [7] of the same compound?
Answer: 16.7 ± 2.26 µM

Question: What about the IC50 [8] of the same compound?
Answer: > 200 µM

Question: What about the IC50 [5] of the same compound?
Answer: 53.2 ± 5.3 µM

From publication PMC9069370, “Integrated Design of a Membrane‐Lytic Peptide‐Based Intravenous Nanotherapeutic Suppresses Triple‐Negative Breast Cancer” (Advanced Science, 2022)
